20 compounds from US7932246B2, “Histone deacetylase inhibitors” (Chroma Therapeutics Ltd., priority 2005, dated 2011) can be followed below.

The IC50 is the point on the concentration scale where inhibition reaches its midpoint. Read a low IC50 as inhibition by little substance.

Bounds are passed on as bounds.

In assay [1] the target is histone deacetylase activity (HeLa nuclear extract). As to the kind of experiment: HDAC fluorescent activity assay (Biomol, Fluor de Lys substrate). The following applies: IC50 range. The format is biochemical. The procedure: The ability of compounds to inhibit histone deacetylase activities was measured using the commercially available HDAC fluorescent activity assay from Biomol. In brief, the Fluor de Lys™ substrate, a lysine with an epsilon-amino acetylation, is incubated with the source of histone deacetylase activity (HeLa nuclear extract) in the presence or absence of inhibitor. Deacetylation of the substrate sensitises the substrate to Fluor de Lys™ developer, which generates a fluorophore.
Data are expressed as a percentage of the control, measured in the absence of inhibitor, with background signal being subtracted from all samples, as follows:— % activity=[(S^i−B)/(S^o−B)]×100 where S^i is the signal in the presence of substrate, enzyme and inhibitor, S^o is the signal in the presence of substrate, enzyme and the vehicle in which the inhibitor is dissolved, and B is the background signal measured in the absence of enzyme.
Histone deacetylase activity from crude nuclear extract derived from HeLa cells was used for screening. The preparation, purchased from 4C (Seneffe, Belgium), was prepared from HeLa cells harvested whilst in exponential growth phase. The nuclear extract is prepared according to Dignam JD1983 Nucl. Acid. […] The final buffer composition was 20 mM Hepes, 100 mM KCl, 0.2 mM EDTA, 0.5 mM DTT, 0.2 mM PMSF and 20% (v/v) glycerol.

In a further assay the test system is HeLa cells. Put plainly: HeLa cell inhibition assay (SRB cell viability). The following applies: 72 h, IC50 range. The format is cell-based. The procedure: HeLa cells growing in log phase were harvested and seeded at 1000 cells/well (200 μl final volume) into 96-well tissue culture plates. Following 24 h of cell growth cells were treated with compounds (final concentration of 20 μM). Plates were then re-incubated for a further 72 h before a sulphorhodamine B (SRB) cell viability assay was conducted according to Skehan 1990 J Natl Canc Inst 82, 1107-1112.
(§1) Data were expressed as a percentage inhibition of the control, measured in the absence of inhibitor, as follows:— % inhibition=100−[(S^i/S^o)×100] where S^i is the signal in the presence of inhibitor and S^o is the signal in the presence of DMSO.
IC50 values were determined by non-linear regression analysis, after fitting the results of eight data points to the equation for sigmoidal dose response with variable slope (% activity against log concentration of compound), using Graphpad Prism software.
(§2) IC50 results were allocated to one of 3 ranges as follows: […]

The subject of another assay is U937. Put plainly: U937 cell inhibition assay (WST-1 cell viability). The format is cell-based. Particulars: U937 cells, 72-96 h, WST-1 assay, IC50 range. The procedure:
(§3) Cancer cell lines (U937 and HUT) growing in log phase were harvested and seeded at 1000-2000 cells/well (100 μl final volume) into 96-well tissue culture plates. Following 24 h of growth cells were treated with compound. Plates were then re-incubated for a further 72-96 h before a WST-1 cell viability assay was conducted according to the suppliers (Roche Applied Science) instructions.
as §1
(§4) Dose response curves were generated from 8 concentrations (top final concentration 10 μM, with 3-fold dilutions), using 6 replicates.
(§5) IC50 values were determined by non-linear regression analysis, after fitting the results to the equation for sigmoidal dose response with variable slope (% activity against log concentration of compound), using Graphpad Prism software.
as §2
For orientation: Tetrazolium dyes change colour on reduction, which living cells bring about.

For a further assay, the system named is HUT. As to the kind of experiment: HUT cell inhibition assay (WST-1 cell viability). The format is cell-based. The following applies: HUT cells, 72-96 h, WST-1 assay, IC50 range. Here is the method: as §3, §1, §4, §5, §2

`O=C(NO)c1cnc(N2CC3C(C2)C3NC(=O)c2ccc3occc3c2)nc1` (centres unmarked) [Example 16, N-Hydroxy 2-{6-[(1-benzofuran-5-ylcarbonyl)amino]-3-azabicyclo[3.1.0]hex-3-yl}pyrimidine-5-carboxamide]: the IC50 in assay [1] was less than 100 nM; in the assay with HeLa cells (Homo sapiens, HeLa), 331 to 3300 nM; in the assay with U937 (Homo sapiens, U-937) it was 331 to 3300 nM; in the assay with HUT it was less than 330 nM.

With `O=C(NO)c1cnc(N2CC3C(C2)C3NC(=O)c2cccs2)nc1` (centres unmarked) [Example 18, N-Hydroxy 2-{6-[(thien-2-ylcarbonyl)amino]-3-azabicyclo[3.1.0]hex-3-yl}pyrimidine-5-carboxamide], the concentration for half-maximal inhibition (IC50) in assay [1] was less than 100 nM; in the assay with HeLa cells (Homo sapiens, HeLa), greater than 3300 nM; in the assay on U937 (Homo sapiens, U-937), greater than 3300 nM; with HUT it was 331 to 3300 nM.

As to `O=C(Cc1ccc(-c2ccccc2)cc1)NC1C2CN(c3ncc(C(=O)NO)cn3)CC21` (centres unmarked) [Example 19, N-Hydroxy 2-[6-(2-biphenyl-4-yl-acetylamino)-3-azabicyclo[3.1.0]hex-3-yl]pyrimidine-5-carboxamide], the IC50 is less than 100 nM in assay [1]; less than 330 nM in the assay on HeLa cells (Homo sapiens, HeLa); less than 330 nM with U937 (Homo sapiens, U-937); less than 330 nM in the assay with HUT.

For the compound `O=C(NO)c1cnc(N2CC3C(C2)C3NCc2ccc3ccccc3c2)nc1` (centres unmarked) [Example 20, N-Hydroxy 2-{6-[(2-naphthylmethyl)amino]-3-azabicyclo[3.1.0]hex-3-yl}pyrimidine-5-carboxamide], the IC50 in assay [1] was less than 100 nM; with HeLa cells (Homo sapiens, HeLa) it was 331 to 3300 nM; in the assay with U937 (Homo sapiens, U-937), less than 330 nM; in the assay on HUT, less than 330 nM.

Regarding `O=C(NO)c1cnc(N2CC3C(C2)C3NCc2ccc(Oc3ccccc3)cc2)nc1` (centres unmarked) [Example 22, N-Hydroxy 2-[6-(4-phenoxybenzylamino)-3-azabicyclo[3.1.0]hex-3-yl]pyrimidine-5-carboxamide], the IC50 is less than 100 nM in assay [1]; less than 330 nM with HeLa cells (Homo sapiens, HeLa); less than 330 nM with U937 (Homo sapiens, U-937); less than 330 nM in the assay on HUT.

For the compound `CCCCc1ccc(CNC2C3CN(c4ncc(C(=O)NO)cn4)CC32)cc1` (centres unmarked) [Example 23, N-Hydroxy 2-[6-(4-butylbenzylamino)-3-azabicyclo[3.1.0]hex-3-yl]pyrimidine-5-carboxamide], the IC50 in assay [1] is less than 100 nM; in the assay on HeLa cells (Homo sapiens, HeLa), 331 to 3300 nM; in the assay with U937 (Homo sapiens, U-937), 331 to 3300 nM; in the assay with HUT, less than 330 nM.

As to `CC(CNC1C2CN(c3ncc(C(=O)NO)cn3)CC21)c1ccccc1` (centres unmarked) [Example 24, N-Hydroxy 2-{6-[(2-phenylpropyl)amino]-3-azabicyclo[3.1.0]hex-3-yl}pyrimidine-5-carboxamide], the IC50 in assay [1] is less than 100 nM; with HeLa cells (Homo sapiens, HeLa), 331 to 3300 nM; in the assay on U937 (Homo sapiens, U-937), less than 330 nM; in the assay on HUT it was less than 330 nM.

Regarding `COc1ccc(CNC2C3CN(c4ncc(C(=O)NO)cn4)CC32)cc1` (centres unmarked) [Example 26, N-Hydroxy 2-{6-[(4-methoxybenzyl)amino]-3-azabicyclo[3.1.0]hex-3-yl}pyrimidine-5-carboxamide], the IC50 is less than 100 nM in assay [1], less than 330 nM in the assay with HeLa cells, less than 330 nM with U937 and less than 330 nM in the assay on HUT.

On to `O=C(NO)c1cnc(N2CC3C(C2)C3NCc2ccc(-c3ccccc3)cc2)nc1` (centres unmarked) [Example 27, N-Hydroxy 2-{6-[(biphenyl-4-ylmethyl)-amino]-3-aza-bicyclo[3.1.0]hex-3-yl}pyrimidine-5-carboxamide], for which the IC50 was less than 100 nM in assay [1]; less than 330 nM in the assay with HeLa cells (Homo sapiens, HeLa); less than 330 nM in the assay on U937 (Homo sapiens, U-937); less than 330 nM with HUT.

With `O=C(NO)c1cnc(N2CC3C(C2)C3NCc2cc(F)cc(F)c2)nc1` (centres unmarked) [Example 28, N-Hydroxy 2-{6-[(3,5-difluorobenzyl)amino]-3-azabicyclo[3.1.0]hex-3-yl}pyrimidine-5-carboxamide], the IC50 in assay [1] was less than 100 nM; with HeLa cells (Homo sapiens, HeLa), less than 330 nM; in the assay with U937 (Homo sapiens, U-937), less than 330 nM; in the assay with HUT, less than 330 nM.

As for `CC(CCNC1C2CN(c3ncc(C(=O)NO)cn3)CC21)c1ccccc1` (centres unmarked) [Example 29, N-Hydroxy 2-[6-(3-phenylbutylamino)-3-aza-bicyclo[3.1.0]hex-3-yl]pyrimidine-5-carboxamide], the IC50 is less than 100 nM in assay [1]; less than 330 nM in the assay with HeLa cells (Homo sapiens, HeLa); less than 330 nM with U937 (Homo sapiens, U-937); less than 330 nM in the assay with HUT.

In the case of `O=C(NO)c1cnc(N2CC3C(C2)C3NCc2ccc(Cl)cc2)nc1` (centres unmarked) [Example 30, N-Hydroxy 2-{6-[(4-chlorobenzyl)amino]-3-azabicyclo[3.1.0]hex-3-yl}pyrimidine-5-carboxamide], the IC50 is less than 100 nM in assay [1]; less than 330 nM in the assay on HeLa cells (Homo sapiens, HeLa); less than 330 nM with U937 (Homo sapiens, U-937); less than 330 nM in the assay with HUT.

With `N#Cc1ccc(CNC2C3CN(c4ncc(C(=O)NO)cn4)CC32)cc1` (centres unmarked) [Example 31, N-Hydroxy 2-{6-[(4-cyanobenzyl)amino]-3-azabicyclo[3.1.0]hex-3-yl}pyrimidine-5-carboxamide], the IC50 was less than 100 nM in assay [1]; 331 to 3300 nM with HeLa cells (Homo sapiens, HeLa); less than 330 nM in the assay on U937 (Homo sapiens, U-937); less than 330 nM with HUT.

Turning to `O=C(NO)c1cnc(N2CC3C(C2)C3NCc2csc3ccccc23)nc1` (centres unmarked) [Example 32, N-Hydroxy 2-{6-[(1-benzothien-3-ylmethyl)amino]-3-azabicyclo[3.1.0]hex-3-yl}pyrimidine-5-carboxamide], the half-maximal inhibitory concentration (IC50) was less than 100 nM in assay [1]; less than 330 nM in the assay with HeLa cells (Homo sapiens, HeLa); less than 330 nM in the assay with U937 (Homo sapiens, U-937); less than 330 nM in the assay with HUT.

Take `O=C(NO)c1cnc(N2CC3C(C2)C3NCc2ccccc2)nc1` (centres unmarked) [Example 33, N-Hydroxy 2-[6-(benzylamino)-3-azabicyclo[3.1.0]hex-3-yl]pyrimidine-5-carboxamide]: the IC50 in assay [1] was less than 100 nM; in the assay with HeLa cells (Homo sapiens, HeLa), less than 330 nM; in the assay with U937 (Homo sapiens, U-937), less than 330 nM; with HUT, less than 330 nM.

For the compound `O=C(NO)c1cnc(N2CC3C(C2)C3NCc2ccc(OC(F)(F)F)cc2)nc1` (centres unmarked) [Example 34, N-Hydroxy 2-{6-[(4-trifluoromethoxybenzyl)amino]-3-azabicyclo[3.1.0]hex-3-yl}pyrimidine-5-carboxamide], the IC50 in assay [1] is less than 100 nM; in the assay with HeLa cells (Homo sapiens, HeLa), 331 to 3300 nM; in the assay on U937 (Homo sapiens, U-937) it was less than 330 nM; in the assay on HUT it was less than 330 nM.

As for `O=C(NO)c1cnc(N2CC3C(C2)C3NCc2cc(C(F)(F)F)cc(C(F)(F)F)c2)nc1` (centres unmarked) [Example 35, N-Hydroxy 2-{6-[(3,5-bistrifluoromethylbenzyl)amino]-3-azabicyclo[3.1.0]hex-3-yl}pyrimidine-5-carboxamide], the IC50 in assay [1] is less than 100 nM; in the assay on HeLa cells (Homo sapiens, HeLa), less than 330 nM; in the assay on U937 (Homo sapiens, U-937), less than 330 nM; in the assay on HUT, less than 330 nM.

In the case of `O=C(NO)c1cnc(N2CC3C(C2)C3NCc2cccc(-c3ccccc3)c2)nc1` (centres unmarked) [Example 37, N-Hydroxy 2-{6-[(biphenyl-3-ylmethyl)-amino]-3-aza-bicyclo[3.1.0]hex-3-yl}pyrimidine-5-carboxamide], the IC50 was less than 100 nM in assay [1]; less than 330 nM in the assay with HeLa cells (Homo sapiens, HeLa); less than 330 nM with U937 (Homo sapiens, U-937); less than 330 nM in the assay with HUT.

Take `O=C(NO)c1cnc(N2CC3C(C2)C3NCCc2ccccc2)nc1` (centres unmarked) [Example 38, N-Hydroxy 2-{6-[(2-phenylethyl)amino]-3-azabicyclo[3.1.0]hex-3-yl}pyrimidine-5-carboxamide]: the IC50 was less than 100 nM in assay [1]; 331 to 3300 nM with HeLa cells (Homo sapiens, HeLa); 331 to 3300 nM in the assay with U937 (Homo sapiens, U-937); less than 330 nM in the assay on HUT.

As for `O=C(NO)c1cnc(N2CC3C(C2)C3NCCC(c2ccccc2)c2ccccc2)nc1` (centres unmarked) [Example 39, N-Hydroxy 2-[6-(3,3-diphenylpropylamino)-3-azabicyclo[3.1.0]hex-3-yl]pyrimidine-5-carboxamide], the 50% inhibitory concentration (IC50) in assay [1] is less than 100 nM; with HeLa cells (Homo sapiens, HeLa), 331 to 3300 nM; with U937 (Homo sapiens, U-937) it was less than 330 nM; in the assay with HUT it was less than 330 nM.
